Usually melting point stands for the temperature, or range, at which the solid turns liquid.

Structures can show the parent of a compound that is named as a salt.

The test system of the first data set is histamine-induced skin reactions in guinea pigs. In words: Effect on histamine-induced skin reactions in guinea pigs (skin vascular permeability). In kind it is in vivo, guinea pig. Particulars: oral 3 mg/kg, same manner as Experimental Example 1a, Table 3. As to the method: Effect on Histamine-induced Skin Reactions in Guinea Pigs
Male Hartley guinea pigs weighing about 500 g were used. After the dorsal hair was shaved under ether anesthesia, 1 ml of a 2.5% pontamine sky blue solution was injected intravenously administered, and then 0.1 ml of histamine at 3 μg/ml was injected intradermally into 2 sites (left and right) in the back. Thirty minutes after the injection of histamine, the animals were killed by bleeding and the skin was removed. Two perpendicular diameters (mm) of each blue spot on the inside of the skin were measured and multiplied; the mean for the two products was taken as the microvascular permeability index. Test compounds were suspended in a 5% gum arabic solution and orally administered in a volume of 0.2 ml/100 g body weight 1 hour before histamine administration. Animals in the control group received the same volume of a 5% gum arabic solution. The suppression rate of the sample for the title reaction was calculated using Equation 1, and the results are given in Table 1.
Inhibition (%) of histamine-induced skin reactions=100×(1−vascular permeability index in the presence of drug/vascular permeability index in control group) Equation 1
In the same manner as Experimental Example 1a, the effects of various example compounds on histamine-induced skin reactions in guinea pigs were examined.
Take `O=c1[nH]nc2ccc(NCCCN3CCC(OC(c4ccccc4)c4ccccc4)CC3)nn12` [Example 3b, 6-[3-[4-(Diphenylmethoxy)piperidino]propylamino][1,2,4]triazolo[4,3-b]pyridazin-3(2H)-one]: the “Suppression (%) of histamine-induced skin vascular permeability elevation, oral administration at 3 mg/kg” value stood at 94%.
The same measure, in the same setting: for `O=c1[nH]nc2ccc(OCCCN3CCC(OC(c4ccccc4)c4ccccc4)CC3)nn12` [Example 4b, 6-[3-[4-(Diphenylmethoxy)piperidino]propoxy][1,2,4]triazolo[4,3-b]pyridazin-3(2H)-one] the value was 92%.

The subject of another data set is guinea pig eosinophils. As to the kind of experiment: Suppression of LTB4-induced chemotactic reaction in guinea pig eosinophils. The format is cell-based. Particulars: LTB4-induced chemotaxis, same manner as Experimental Example 2a (1×10^−5 M); Table 4. As to the method: 1) Preparation of Guinea Pig Eosinophils
To male Hartley guinea pigs, 2 ml of equine serum (Bio-Whittaker, Inc.) was intraperitoneally administered once weekly for 8 consecutive weeks. At 48 hours after final administration, 75 ml of physiological saline was intraperitoneally injected, after which the saline was recovered and centrifuged at 400×g for 5 minutes. The resulting sediment was suspended in 5 ml of Percoll solution (density (d)=1.07) and layered on top of the multiple layers of different densities of Percoll solution (density(d)=1.112, 5 ml; d=1.095, 10 ml; d=1.090, 10 ml; d=1.085, 5 ml), followed by centrifugation at 1,000×g for 25 minutes (20° C.). The cell layer formed at the interface between densities 1.112 and 1.095 was collected. Erythrocytes present in the collected cell sediment were removed by hypotonic treatment (suspended in water for […]).
The cell sediment was washed 3 times with Hanks' solution containing 10 mM Hepes (Dojin Kagaku) (Hanks-Hepes) and suspended in a Hanks-Hepes solution containing 2% human serum albumin (Wako Pure Chemical Industry or Sigma) (Hanks-Hepes-HSA) to a final concentration of 5.56×10^6 cells/ml. Eosinophil purity was 90%, viability being over 98%.
2) Determination of Chemotactic Reaction Suppression
To a 24-well petri dish, which serves as a lower chamber, 600 μl of Hanks-Hepes-HSA solution containing LTB4 (final concentration 10^−8 M, Cascade Biochemical Ltd.), was transferred, followed by incubation at 37° C. for 30 minutes in a carbon dioxide incubator. Separately, 200 μl of eosinophil suspension (5×10^6 cells/ml), previously incubated at 37 C for 15 minutes, was added to Chemotaxicell (polycarbonate membrane, pore size 3 μm, thickness 10 μm), which serves as an upper chamber, after the upper chamber was attached to the 24-well petri dish. After 2 hours of reaction in the CO2 incubator, the Chemotaxicell was removed; 60 μl of a 2% (w/v) solution of EDTA in physiological saline was added to the liquid in the lower chamber. After the mixture was on cooled ice, the cells migrating into the lower chamber were counted using a blood cell counter [Coulter Counter (trade name)]. The test drug, dissolved in N,N-dimethyl formamide (DMF), was added to both the upper and lower chambers to a final concentration of 10^-5 M.
Chemotactic reaction suppression rate=[1−(number of migrating cells in the presence of drug/number of migrating cells in the absence of drug).]×100 Equation 2
Suppression rates of LTB4-induced chemotactic reaction by test substances (1×10^−5 M) were calculated using the above equation.
In the same manner as Experimental Example 2a, the percent suppression of LTB4-induced chemotactic reactions by various example compounds was calculated.
On to `CC(C)(C)C(=O)OCn1nc2ccc(NCCCN3CCC(OC(c4ccccc4)c4ccccc4)CC3)nn2c1=O` [Example 10b, 6-[3-[4-(Diphenylmethoxy)piperidino]propylamino]-2-(pivaloyloxymethyl)[1,2,4]triazolo[4,3-b]pyridazin-3(2H)-one], for which the “Suppression rate (%)” value was found to be 55%.
Still for that read-out and setting: the figure for `CC(C)(C)C(=O)OCOC(=O)C(C)(C)n1nc2ccc(NCCCN3CCC(OC(c4ccccc4)c4ccccc4)CC3)nn2c1=O` [Example 11b, pivaloyloxymethyl 2-[6-[3-[4-(Diphenylmethoxy)piperidino]propylamino]-3-oxo[1,2,4]triazolo[4,3-b]pyridazin-2(3H)-yl]-2-methylpropionate] is 100%.

System in a further data set: not given
Test: not given
Conditions: not given
The molecule `OC(COc1ccc2nncn2n1)CN1CCN(C(c2ccccc2)c2ccccc2)CC1` (stereo not drawn) [Example 15a, 6-[3-[4-(Diphenylmethyl)-1-piperazinyl]-2-hydroxypropoxy][1,2,4]triazolo[4,3-b]pyridazine] showed a melting point of 95 to 97 °C.
Still for that read-out and setting: the figure for `CC(C)(C)C(=O)OCn1nc2ccc(NCCCN3CCC(OC(c4ccccc4)c4ccccc4)CC3)nn2c1=O` [Example 10b, 6-[3-[4-(Diphenylmethoxy)piperidino]propylamino]-2-(pivaloyloxymethyl)[1,2,4]triazolo[4,3-b]pyridazin-3(2H)-one] is 168 to 171 °C; for `CC(C)(NC(=O)c1nnc2ccc(OCCCN3CCC(OC(c4ccccc4)c4ccccc4)CC3)nn12)C(=O)O` [Example 28a, N-[6-[3-[4-(Diphenylmethoxy)piperidino]propoxy][1,2,4]triazolo[4,3-b]pyridazine-3-carbonyl]-2,2-dimethylglycine] it is 163 to 165 °C; for `c1ccc(C(OC2CCN(CCCCCCOc3ccc4nncn4n3)CC2)c2ccccc2)cc1` (as salt: fumarate) [Example 7a, 6-[6-[4-(Diphenylmethoxy)piperidino]hexyloxy][1,2,4]triazolo[4,3-b]pyridazine Fumarate] it is 144 to 146 °C.
The same measure, in the same setting: the figure for `O=C(O)CNC(=O)c1nnc2ccc(NCCCN3CCC(OC(c4ccccc4)c4ccccc4)CC3)nn12` [Example 30a, N-[6-[3-[4-(Diphenylmethoxy)piperidino]propylamino][1,2,4]triazolo[4,3-b]pyridazine-3-carbonyl]glycine] is 182 to 184 °C; for `CCOC(=O)C(C)(C)n1nc2ccc(OCCCN3CCC(OC(c4ccccc4)c4ccccc4)CC3)nn2c1=O.Cl` it is 129 °C; for `c1ccc(C(c2ccccc2)N2CCN(CCCCCCNc3ccc4nncn4n3)CC2)cc1` [Example 11a, 6-[6-[4-(Diphenylmethyl)-1-piperazinyl]hexylamino][1,2,4]triazolo[4,3-b]pyridazine] it is 133 to 139 °C.
The same measure, in the same setting: the figure for `c1ccc(C(c2ccccc2)N2CCN(CCCSc3ccc4nncn4n3)CC2)cc1` [Example 2a, 6-[3-[4-(Diphenylmethyl)-1-piperazinyl]propylthio][1,2,4]triazolo[4,3-b]pyridazine] is 143 to 144 °C; for `CC(C)(C(=O)O)c1nnc2ccc(NCCCN3CCC(OC(c4ccccc4)c4ccccc4)CC3)nn12` [Example 19a, 2-[6-[3-[4-(Diphenylmethoxy)piperidino]propylamino][1,2,4]triazolo[4,3-b]pyridazin-3-yl]-2-methylpropionic Acid] it is 155 to 157 °C; for `O=c1[nH]nc2ccc(NCCCN3CCC(OC(c4ccccc4)c4ccccc4)CC3)nn12` [Example 3b, 6-[3-[4-(Diphenylmethoxy)piperidino]propylamino][1,2,4]triazolo[4,3-b]pyridazin-3(2H)-one] it is 156 to 170 °C.
As to `CCOC(=O)c1nnc2ccc(NCCCN3CCC(OC(c4ccccc4)c4ccccc4)CC3)nn12` [Example 21a, Ethyl 6-[3-[4-(Diphenylmethoxy)piperidino]propylamino][1,2,4]triazolo[4,3-b]pyridazine-3-carboxylate], the melting point fell in the range of 129 to 133 °C.
The same measure, in the same setting: the figure for `CC(C)(C(=O)O)n1nc2ccc(NCCCN3CCC(OC(c4ccccc4)c4ccccc4)CC3)nn2c1=O` [Example 9b, 2-[6-[3-[4-(Diphenylmethoxy)piperidino]propylamino]-3-oxo[1,2,4]triazolo[4,3-b]pyridazin-2(3H)-yl]-2-methylpropionic Acid] is 181 to 185 °C; for `CCOC(=O)Cn1nc2ccc(OCCCN3CCC(OC(c4ccccc4)c4ccccc4)CC3)nn2c1=O` [Example 5b, Ethyl 2-[6-[3-[4-(Diphenylmethoxy)piperidino]propoxy]-3-oxo[1,2,4]triazolo[4,3-b]pyridazin-2(3H)-yl]acetate] it is 124 to 125 °C.
On the same count and under the same terms, for `O=c1[nH]nc2ccc(OCCCN3CCC(OC(c4ccccc4)c4ccccc4)CC3)nn12` [Example 4b, 6-[3-[4-(Diphenylmethoxy)piperidino]propoxy][1,2,4]triazolo[4,3-b]pyridazin-3(2H)-one] the value was 209 to 211 °C.
Same read-out and setting: the figure for `Cn1nc2ccc(OCCCN3CCC(OC(c4ccccc4)c4ccccc4)CC3)nn2c1=O` [Example 2b, 6-[3-[4-(Diphenylmethoxy)piperidino]propoxy]-2-methyl[1,2,4]triazolo[4,3-b]pyridazin-3(2H)-one] is 139 to 140 °C; for `CC(C)(C)C(=O)OCOC(=O)C(C)(C)n1nc2ccc(NCCCN3CCC(OC(c4ccccc4)c4ccccc4)CC3)nn2c1=O` [Example 11b, pivaloyloxymethyl 2-[6-[3-[4-(Diphenylmethoxy)piperidino]propylamino]-3-oxo[1,2,4]triazolo[4,3-b]pyridazin-2(3H)-yl]-2-methylpropionate] it is 162 °C.
Regarding `c1ccc(C(OC2CCN(CCCNc3ccc4nncn4n3)CC2)c2ccccc2)cc1` [Example 4a, 6-[3-(4-(Diphenylmethoxy)piperidino]propylamino][1,2,4]triazolo[4,3-b]pyridazine], the melting point was in the range of 167 to 168 °C.
Take `c1ccc(C(c2ccccc2)N2CCN(CCCOc3ccc4nncn4n3)CC2)cc1` [Example 1a, 6-[3-[4-(Diphenylmethyl)-1-piperazinyl]propoxy][1,2,4]triazolo[4,3-b]pyridazine]: the melting point was in the range of 132 to 134 °C.
`CC(C)(NC(=O)c1nnc2ccc(NCCCN3CCC(OC(c4ccccc4)c4ccccc4)CC3)nn12)C(=O)O` [Example 26a, N-[6-[3-[4-(Diphenylmethoxy)piperidino]propylamino][1,2,4]triazolo[4,3-b]pyridazine-3-carbonyl]-2,2-dimethylglycine]: the melting point was 191 to 193 °C.
Same read-out and setting: the figure for `CCOC(=O)CNC(=O)c1nnc2ccc(NCCCN3CCC(OC(c4ccccc4)c4ccccc4)CC3)nn12` [Example 29a, N-[6-[3-[4-(Diphenylmethoxy)piperidino]propylamino][1,2,4]triazolo[4,3-b]pyridazine-3-carbonyl]glycine ethyl ester] is 152 to 155 °C; for `CCOC(=O)C(C)(C)NC(=O)c1nnc2ccc(NCCCN3CCC(OC(c4ccccc4)c4ccccc4)CC3)nn12` [Example 25a, N-[6-[3-[4-(Diphenylmethoxy)piperidino]propylamino][1,2,4]triazolo[4,3-b]pyridazine-3-carbonyl]-2,2-dimethylglycine Ethyl Ester] it is 165 to 167 °C.
In turn, `c1ccc(C(OC2CCN(CCOc3ccc4nncn4n3)CC2)c2ccccc2)cc1` [Example 6a, 6-(2-[4-(Diphenylmethoxy)piperidino]ethoxy][1,2,4]triazolo[4,3-b]pyridazine] yielded a melting point of 149 to 150 °C.
Same read-out and setting: for `CC(C)(C(N)=O)c1nnc2ccc(OCCCN3CCC(OC(c4ccccc4)c4ccccc4)CC3)nn12` [Example 23a, 2-[6-[3-[4-(Diphenylmethoxy)piperidino]propoxy][1,2,4]triazolo[4,3-b]pyridazin-3-yl]-2-methylpropionamide] the value was 133 to 136 °C.
